Measurements published in article PMC11985751, “Synthesis, bioactivity, and molecular docking studies: novel arylpiperazine derivatives as potential new-resistant AR antagonists” (Frontiers in Chemistry, 2025).

Experiments:
WPMY-1 = experiment: In vitro cytotoxicity, CCK-8 assay (normal prostatic epithelial cells); format: cell-based; details: Homo sapiens; WPMY-1 normal prostatic epithelial cells, CCK-8, mean ± SD of three trials
Procedure: (§1) PC-3 and WPMY-1 cells were cultured in Dulbecco’s modiffcation Eagle’s medium (DMEM, Invitrogen, Carlsbad, CA, United States) supplemented with 10% fetal bovine serum (FBS, Hyclone, Logan, UT, United States), 100 U/mL penicillin and 0.1 mg/mL streptomycin (Invitrogen). DU145 cells were cultured in RPMI1640 media supplemented with 10% fetal bovine serum (FBS, Hyclone), 100 U/mL penicillin and 0.1 mg/mL streptomycin (Invitrogen). LNCaP cells were cultured in F12 media supplemented with 10% fetal bovine serum (FBS, Hyclone), 100 U/mL penicillin and 0.1 mg/mL streptomycin (Invitrogen). The cells were incubated at 37°C in a humidified atmosphere with 5% CO2([Chen et al., 2025]; [Jiang et al., 2024]). […]
(§2) The compound concentrations were set at 30, 15, 7.5, 3.75, 1.88, and 0.94 μmol/L. The absorbance (A) was measured at 450 nm using a microplate reader. […] All experiments were repeated three times under identical conditions, and the mean value was taken as the final result.
(§3) The cytotoxic activity of derivatives 5–24 against three human prostate cancer cell lines (PC-3, LNCaP, and DU145) and one type of human normal prostate epithelial cells was evaluated using the CCK-8 method.

DU145 = experiment: In vitro cytotoxicity, CCK-8 assay; format: cell-based; details: Homo sapiens, DU-145; DU145 cells, CCK-8, mean ± SD of three trials
Procedure: as §1, §2, §3

PC-3 = experiment: In vitro cytotoxicity, CCK-8 assay; format: cell-based, human; details: CCK-8, mean ± SD of three trials
Procedure: as §1, §2, §3

LNCaP = experiment: In vitro cytotoxicity, CCK-8 assay; format: cell-based, human; details: LNCaP cells, CCK-8, mean ± SD of three trials
Procedure: PC-3 and WPMY-1 cells were cultured in Dulbecco’s modiffcation Eagle’s medium (DMEM, Invitrogen, Carlsbad, CA, United States) supplemented with 10% fetal bovine serum (FBS, Hyclone, Logan, UT, United States), 100 U/mL penicillin and 0.1 mg/mL streptomycin (Invitrogen). DU145 cells were cultured in RPMI1640 media supplemented with 10% fetal bovine serum (FBS, Hyclone), 100 U/mL penicillin and 0.1 mg/mL streptomycin (Invitrogen). LNCaP cells were cultured in F12 media supplemented with 10% fetal bovine serum (FBS, Hyclone), 100 U/mL penicillin and 0.1 mg/mL streptomycin (Invitrogen). The cells were incubated at 37°C in a humidified atmosphere with 5% CO2([Chen et al., 2025]; [Jiang et al., 2024]).
The proliferative capacity of cells was evaluated through the implementation of a Cell Counting Kit-8 (CCK-8) assay, supplied by Dojindo (Japan), to quantify cellular growth. Post-transfection, cells were dispensed into a 96-well microplate at a density of 3 × 10^3 cells per well and incubated for intervals of 0, 24, 48, 72, 96, and 120 h. Following this, 10 μL of the CCK-8 solution was introduced into each well and the plates were returned to the incubator for an additional 2-h period at 37°C under 5% CO2 conditions. Absorbance readings at 450 nm were subsequently taken using an ELISA reader manufactured by Bio Tek (United States) ([Chen et al., 2022]; [Zhou et al., 2024]).
as §2, §3

AR = molecular target: T1, AR (Homo sapiens, UniProt P10275); experiment: AR reporter gene (luciferase) assay, co-treatment with 1 nM R1881; format: cell-based; details: 10 μM compound, inhibition rate as ratio to R1881 control, read-out: AR antagonistic activity% (10 μM)
T1 sequence (P10275 1-920): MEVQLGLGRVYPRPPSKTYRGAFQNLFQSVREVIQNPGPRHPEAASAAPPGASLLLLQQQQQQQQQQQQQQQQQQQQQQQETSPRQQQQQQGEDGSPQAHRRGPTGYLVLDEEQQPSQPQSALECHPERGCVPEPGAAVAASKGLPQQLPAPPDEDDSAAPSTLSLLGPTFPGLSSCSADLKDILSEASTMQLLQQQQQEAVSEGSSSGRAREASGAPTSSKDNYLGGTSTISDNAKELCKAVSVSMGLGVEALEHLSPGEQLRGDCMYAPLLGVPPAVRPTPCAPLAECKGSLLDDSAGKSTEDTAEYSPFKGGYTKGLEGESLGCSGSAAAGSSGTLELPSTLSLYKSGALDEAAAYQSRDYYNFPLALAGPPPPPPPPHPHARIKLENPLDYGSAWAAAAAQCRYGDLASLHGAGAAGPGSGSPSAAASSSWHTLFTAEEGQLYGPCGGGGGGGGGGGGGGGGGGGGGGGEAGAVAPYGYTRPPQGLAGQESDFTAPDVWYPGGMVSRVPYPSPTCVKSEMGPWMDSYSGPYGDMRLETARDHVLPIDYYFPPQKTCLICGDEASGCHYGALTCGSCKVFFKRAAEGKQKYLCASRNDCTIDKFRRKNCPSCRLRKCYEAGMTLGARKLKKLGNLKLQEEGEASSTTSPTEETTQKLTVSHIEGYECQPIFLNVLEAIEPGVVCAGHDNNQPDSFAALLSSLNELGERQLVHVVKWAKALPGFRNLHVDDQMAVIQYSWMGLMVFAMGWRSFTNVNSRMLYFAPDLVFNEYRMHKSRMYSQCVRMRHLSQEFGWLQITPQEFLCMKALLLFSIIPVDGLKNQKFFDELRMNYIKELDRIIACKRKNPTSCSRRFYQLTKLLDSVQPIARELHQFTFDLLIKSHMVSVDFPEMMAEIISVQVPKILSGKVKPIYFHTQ
Procedure: RLUs were measured using a luminometer (GloMaxTM 96-Microplate Luminometer, Promega) and are reported as the mean ± SEM of three individual experiments. For agonists, fold of induction = LUinduced/RLUuninduced. For antagonists, % of control = 100 × RLU (agonist + antagonist)/RLU (agonist alone). All RLUs were normalized against ffreffy RLUs/Renilla RLUs. Data are expressed as EC50/IC50 values in μM, and the IC50 of […] (μM) was calculated by plotting the data using nonlinear regression analysis in Graph-Pad Prism 5 software.

AR-LBD (GST) = molecular target: T2, AR-LBD (GST) (Rattus norvegicus, UniProt P15207); experiment: Fluorescence polarization, PolarScreen AR Competitor Assay, Green
T2 sequence (P15207 651-882 limits assumed): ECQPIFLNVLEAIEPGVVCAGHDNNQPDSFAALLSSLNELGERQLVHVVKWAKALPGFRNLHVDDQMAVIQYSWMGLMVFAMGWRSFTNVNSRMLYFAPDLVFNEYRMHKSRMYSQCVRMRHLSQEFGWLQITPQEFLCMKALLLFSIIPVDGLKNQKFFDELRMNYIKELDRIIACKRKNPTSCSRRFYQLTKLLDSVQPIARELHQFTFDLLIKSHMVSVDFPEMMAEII
Procedure: Brieffy, the assay entails titration of the test compound against a preformed complex of Fluormone™AL Green and the AR-LBD (GST). […] Data analysis for the ligand binding assays was performed using Prism software (GraphPad Software, Inc.).

| activity at 10 µM (AR) [%] | IC50 (AR-LBD (GST)) [µM] | SMILES | IC50 (WPMY-1) [µM] | IC50 (DU145) [µM] | IC50 (PC-3; Homo sapiens, PC-3, PC-3 cells) [µM] | IC50 (LNCaP; Homo sapiens, LNCaP) [µM] | IC50 (PC-3; PC-3 cells) [µM] | IC50 (LNCaP) [µM] |
| --- | --- | --- | --- | --- | --- | --- | --- | --- |
|  |  | c1ccc(OCCc2ccc(CN3CCN(C(c4ccccc4)c4ccccc4)CC3)cc2)cc1 [Compound 5, 1-benzhydryl-4-(4-(2-phenoxyethyl)benzyl)piperazine] | > 50 | > 50 | 13.08 ± 0.12 | > 50 |  |  |
|  |  | Fc1ccc(OCCc2ccc(CN3CCN(C(c4ccccc4)c4ccccc4)CC3)cc2)cc1 [Compound 6, 1-benzhydryl-4-(4-(2-(4-fluorophenoxy)ethyl)benzyl)piperazine] | > 50 | > 50 | 34.39 ± 0.17 | > 50 |  |  |
| 50.1 ± 1.1 | 2.15 ± 0.13 | Cc1cc(C)cc(OCCc2ccc(CN3CCN(C(c4ccccc4)c4ccccc4)CC3)cc2)c1 [Compound 7, 1-benzhydryl-4-(4-(2-(3,5-dimethylphenoxy)ethyl)benzyl)piperazine] | > 50 | 24.76 ± 0.21 | < 5 | > 50 | 2.95 ± 0.04 |  |
|  |  | N#Cc1ccc(OCCc2ccc(CN3CCN(C(c4ccccc4)c4ccccc4)CC3)cc2)cc1 [Compound 8, 4-(4-((4-benzhydrylpiperazin-1-yl)methyl)phenethoxy)benzonitrile] | 17.56 ± 0.12 | 19.83 ± 0.14 | 12.54 ± 0.11 | 22.36 ± 0.2 |  |  |
|  |  | Ic1ccc(OCCc2ccc(CN3CCN(C(c4ccccc4)c4ccccc4)CC3)cc2)cc1 [Compound 9, 1-benzhydryl-4-(4-(2-(4-iodophenoxy)ethyl)benzyl)piperazine] | > 50 | > 50 | 15.2 ± 0.19 | > 50 |  |  |
|  |  | Clc1ccc(OCCc2ccc(CN3CCN(C(c4ccccc4)c4ccccc4)CC3)cc2)cc1Cl [Compound 10, 1-benzhydryl-4-(4-(2-(3,4-dichlorophenoxy)ethyl)benzyl)piperazine] | > 50 | > 50 | 17.44 ± 0.07 | > 50 |  |  |
| 51.2 ± 1.3 | 2.01 ± 0.15 | Clc1cc(Cl)cc(OCCc2ccc(CN3CCN(C(c4ccccc4)c4ccccc4)CC3)cc2)c1 [Compound 11, 1-benzhydryl-4-(4-(2-(3,5-dichlorophenoxy)ethyl)benzyl)piperazine] | > 50 | 17.43 ± 0.04 |  | > 50 |  |  |
|  |  | Cc1cccc(OCCc2ccc(CN3CCN(C(c4ccccc4)c4ccccc4)CC3)cc2)c1 [Compound 12, 1-benzhydryl-4-(4-(2-(m-tolyloxy)ethyl)benzyl)piperazine] | 28.54 ± 0.16 | 34.43 ± 0.15 | > 50 | 19.6 ± 0.23 |  |  |
|  |  | Clc1ccccc1OCCc1ccc(CN2CCN(C(c3ccccc3)c3ccccc3)CC2)cc1 [Compound 13, 1-benzhydryl-4-(4-(2-(2-chlorophenoxy)ethyl)benzyl)piperazine] | 17.83 ± 0.17 | 21.24 ± 0.16 | 15.35 ± 0.08 | 12.2 ± 0.25 |  |  |
|  |  | Brc1ccccc1OCCc1ccc(CN2CCN(C(c3ccccc3)c3ccccc3)CC2)cc1 [Compound 14, 1-benzhydryl-4-(4-(2-(2-bromophenoxy)ethyl)benzyl)piperazine] | > 50 | > 50 | 19.12 ± 0.16 | > 50 |  |  |
|  |  | Cc1ccc(OCCc2ccc(CN3CCN(C(c4ccccc4)c4ccccc4)CC3)cc2)cc1 [Compound 15, 1-benzhydryl-4-(4-(2-(p-tolyloxy)ethyl)benzyl)piperazine] | 14.72 ± 0.14 | 13.7 ± 0.14 | 20.49 ± 0.12 | 9.29 ± 0.23 |  |  |
|  |  | CCOc1ccc(OCCc2ccc(CN3CCN(C(c4ccccc4)c4ccccc4)CC3)cc2)cc1 [Compound 16, 1-benzhydryl-4-(4-(2-(4-ethoxyphenoxy)ethyl)benzyl)piperazine] | > 50 | > 50 | 13.6 ± 0.09 | > 50 |  |  |
| > 60 | 1.14 ± 0.12 | c1ccc(C(c2ccccc2)N2CCN(Cc3ccc(CCOc4cccc5c4CCCC5)cc3)CC2)cc1 [Compound 17, 1-benzhydryl-4-(4-(2-((5,6,7,8-tetrahydronaphthalen-1-yl)oxy)ethyl)benzyl)piperazine] | > 50 | 7.32 ± 0.08 |  |  |  |  |
|  |  | c1ccc(C(c2ccccc2)N2CCN(Cc3ccc(CCOc4ccc5c(c4)CCCC5)cc3)CC2)cc1 [Compound 18, 1-benzhydryl-4-(4-(2-((5,6,7,8-tetrahydronaphthalen-2-yl)oxy)ethyl)benzyl)piperazine] | > 50 | 14.4 ± 0.15 | 5.02 ± 0.12 | > 50 |  |  |
| > 60 | 1.01 ± 0.03 | Cc1ccccc1OCCc1ccc(CN2CCN(C(c3ccccc3)c3ccccc3)CC2)cc1 [Compound 19, 1-benzhydryl-4-(4-(2-(o-tolyloxy)ethyl)benzyl)piperazine] | > 50 | 0.87 ± 0.04 |  |  |  |  |
| > 60 | 1.66 ± 0.12 | Cc1ccc(OCCc2ccc(CN3CCN(C(c4ccccc4)c4ccccc4)CC3)cc2)cc1C [Compound 20, 1-benzhydryl-4-(4-(2-(3,4-dimethylphenoxy)ethyl)benzyl)piperazine] | > 50 | 3.89 ± 0.14 |  |  |  |  |
| > 60 | 1.72 ± 0.12 | Brc1ccc(OCCc2ccc(CN3CCN(C(c4ccccc4)c4ccccc4)CC3)cc2)cc1 [Compound 23, 1-benzhydryl-4-(4-(2-(4-bromophenoxy)ethyl)benzyl)piperazine] | > 50 | 1.42 ± 0.11 |  | < 5 |  | 3.86 ± 0.13 |
|  |  | COc1ccccc1N1CCN(CC(O)COc2cccc3ccccc23)CC1 (stereo not drawn) [Naftopidil, reference compound] | > 50 | 34.58 ± 0.31 | 42.1 ± 0.79 | 22.4 ± 0.61 |  |  |
